Laboratory results reported in patent EP3788116B1, “CHEMILUMINESCENT IMIDAZOPYRAZINONE-BASED PHOTOSENSITIZERS WITH AVAILABLE SINGLET AND TRIPLET EXCITED STATES” (Universidade do Porto, priority 2018, dated 2019).

What was measured:
[1] = test system: HepG2 human liver cancer cell lines; assay: MTT cytotoxicity assay; type: cell-based; conditions: HepG2, 24h exposure, versus control cell viability taken as 100%, read-out: toxicity
Protocol: (§1) To assess if the produced singlet oxygen can induce cytotoxicity in tumor cells, toxicity assays were performed in vitro with compound 1 in HepG2 human liver cancer cell lines. Cytotoxicity of compound 1 was evaluated through the MTT and LDH assay, which has been widely used as a colorimetric approach based on the activity of mitochondrial dehydrogenase enzyme in cells. MTT test was performed after an incubation of 24h and 48h. LDH release was monitored following an incubation of 24h and 48h with different concentrations of Compound 1 (1, 10, 20, 50 and 100 µM). Percent viability was obtained by comparing with control cell viability, considered as 100%. Data represents the mean ± SD of measurements of three independent experiments. Results of the one-way ANOVA factorial analysis. […] Thus, compound 1 was indeed able to induce cytotoxicity without the need of external excitation sources.

[2] = Singlet oxygen formation by quenching of ABDA fluorescence; conditions: increasing concentrations of compound (0-15 microMolar); no external excitation; sodium azide prevented the quenching
Protocol: The production of reactive triplet states by compound 1 was determined by assessing the formation of singlet oxygen. This latter species is formed by energy transfer from a triplet molecule to oxygen. To this end, 9,10-anthracenediyl-bis(methylene)dimalonic acid (ABDA) was added to a solution containing compound 1, as the fluorescence of ABDA is quenched by the formation of singlet oxygen. […] To confirm that the quenching of ABDA's fluorescence was due to the production of singlet oxygen, sodium azide was added to solutions containing ABDA and compound 1. Sodium azide is a known quencher of singlet oxygen. As expected, the addition of sodium azide prevented the quenching of the fluorescence emitted by ABDA (Figure 12).

[3] = test system: HepG2 human liver cancer cell lines; assay: LDH release cytotoxicity assay; type: cell-based; conditions: HepG2, 24h exposure, read-out: toxicity
Protocol: as §1

With Cc1nc2c(Br)[nH]c(-c3ccc(O)cc3)cn-2c1=O [Compound 1, 8-bromo-6-(4-hydroxyphenyl)-2-methylimidazo[1,2-a]pyrazin-3(7H)-one] the cytotoxicity at 50 µM ([1]; 50 µM) was 15%, the cytotoxicity at 100 µM ([1]; 100 µM) was 12% and the “fluorescence intensity of ABDA” value [2] was “decreased significantly”. It also gave a cytotoxicity at 50 µM ([3]; 50 µM) of 15% and a cytotoxicity at 100 µM ([3]; 100 µM) of 12%.
